From ChEMBL document CHEMBL4507257, “Data for DCP probe ABT-100” (2021)

Key:
[1] = molecular target: Muscarinic acetylcholine receptor M3 (Homo sapiens) (UniProt P20309); conditions: Compound concentration 10.0 uM
[2] = molecular target: Mitogen-activated protein kinase 13 (Homo sapiens) (UniProt O15264); conditions: Compound concentration 1000.0 nM
[3] = molecular target: Phosphorylase b kinase regulatory subunit alpha, liver isoform (Homo sapiens) (UniProt P46019); conditions: Compound concentration 1000.0 nM
[4] = molecular target: Membrane-associated tyrosine- and threonine-specific cdc2-inhibitory kinase (Homo sapiens) (UniProt Q99640); conditions: Compound concentration 1000.0 nM
[5] = molecular target: Histamine H3 receptor (Homo sapiens) (UniProt Q9Y5N1); conditions: Compound concentration 10.0 uM
[6] = system: Hepatocyte growth factor receptor (Homo sapiens), P08581 [M1250T]; conditions: Compound concentration 1000.0 nM
[7] = molecular target: Tyrosine-protein kinase CSK (Homo sapiens) (UniProt P41240); conditions: Compound concentration 1000.0 nM
[8] = molecular target: cGMP-dependent protein kinase 1 (Homo sapiens) (UniProt Q13976); conditions: Compound concentration 1000.0 nM
[9] = molecular target: LIM domain kinase 2 (Homo sapiens) (UniProt P53671); conditions: Compound concentration 1000.0 nM
[10] = molecular target: Mitogen-activated protein kinase kinase kinase 19 (Homo sapiens) (UniProt Q56UN5); conditions: Compound concentration 1000.0 nM
[11] = molecular target: Hormonally up-regulated neu tumor-associated kinase (Homo sapiens) (UniProt P57058); conditions: Compound concentration 1000.0 nM
[12] = molecular target: Activin receptor type-2B (Homo sapiens) (UniProt Q13705); conditions: Compound concentration 1000.0 nM
[13] = system: Phosphatidylinositol 4,5-bisphosphate 3-kinase catalytic subunit alpha isoform (Homo sapiens), P42336 [I800L]; conditions: Compound concentration 1000.0 nM
[14] = molecular target: Kappa-type opioid receptor (Homo sapiens) (UniProt P41145); conditions: Compound concentration 10.0 uM
[15] = system: Tyrosine-protein kinase ABL1 (Homo sapiens), P00519 [F317I]; conditions: Compound concentration 1000.0 nM
[16] = molecular target: Mitogen-activated protein kinase 12 (Homo sapiens) (UniProt P53778); conditions: Compound concentration 1000.0 nM
[17] = molecular target: Casein kinase I isoform gamma-3 (Homo sapiens) (UniProt Q9Y6M4); conditions: Compound concentration 1000.0 nM
[18] = molecular target: Protein kinase C delta type (Homo sapiens) (UniProt Q05655); conditions: Compound concentration 1000.0 nM
[19] = molecular target: Transient receptor potential cation channel subfamily M member 6 (Homo sapiens) (UniProt Q9BX84); conditions: Compound concentration 1000.0 nM
[20] = molecular target: MAP kinase-interacting serine/threonine-protein kinase 2 (Homo sapiens) (UniProt Q9HBH9); conditions: Compound concentration 1000.0 nM
[21] = molecular target: Cyclin-dependent kinase 9 (Homo sapiens) (UniProt P50750); conditions: Compound concentration 1000.0 nM
[22] = molecular target: Ephrin type-B receptor 1 (Homo sapiens) (UniProt P54762); conditions: Compound concentration 1000.0 nM
[23] = molecular target: Mitogen-activated protein kinase kinase kinase kinase 1 (Homo sapiens) (UniProt Q92918); conditions: Compound concentration 1000.0 nM
[24] = molecular target: 5'-AMP-activated protein kinase catalytic subunit alpha-1 (Homo sapiens) (UniProt Q13131); conditions: Compound concentration 1000.0 nM
[25] = molecular target: Dual specificity mitogen-activated protein kinase kinase 1 (Homo sapiens) (UniProt Q02750); conditions: Compound concentration 1000.0 nM
[26] = molecular target: Glycogen synthase kinase-3 beta (Homo sapiens) (UniProt P49841); conditions: Compound concentration 1000.0 nM
[27] = molecular target: Mast/stem cell growth factor receptor Kit (Homo sapiens) (UniProt P10721); conditions: Compound concentration 1000.0 nM
[28] = molecular target: Serine/threonine-protein kinase PAK 1 (Homo sapiens) (UniProt Q13153); conditions: Compound concentration 1000.0 nM
[29] = molecular target: Leucine-rich repeat serine/threonine-protein kinase 2 (Homo sapiens) (UniProt Q5S007); conditions: Compound concentration 1000.0 nM
[30] = molecular target: Serine/threonine-protein kinase Nek1 (Homo sapiens) (UniProt Q96PY6); conditions: Compound concentration 1000.0 nM
[31] = molecular target: Serine/threonine-protein kinase PAK 6 (Homo sapiens) (UniProt Q9NQU5); conditions: Compound concentration 1000.0 nM
[32] = molecular target: Tyrosine-protein kinase JAK3 (Homo sapiens) (UniProt P52333); conditions: Compound concentration 1000.0 nM
[33] = molecular target: Homeodomain-interacting protein kinase 3 (Homo sapiens) (UniProt Q9H422); conditions: Compound concentration 1000.0 nM
[34] = molecular target: Serine/threonine-protein kinase Sgk2 (Homo sapiens) (UniProt Q9HBY8); conditions: Compound concentration 1000.0 nM
[35] = molecular target: Serine/threonine-protein kinase LATS2 (Homo sapiens) (UniProt Q9NRM7); conditions: Compound concentration 1000.0 nM
[36] = molecular target: Macrophage-stimulating protein receptor (Homo sapiens) (UniProt Q04912); conditions: Compound concentration 1000.0 nM
[37] = molecular target: Receptor tyrosine-protein kinase erbB-2 (Homo sapiens) (UniProt P04626); conditions: Compound concentration 1000.0 nM
[38] = system: Receptor-type tyrosine-protein kinase FLT3 (Homo sapiens), P36888 [R834Q]; conditions: Compound concentration 1000.0 nM
[39] = molecular target: Serine/threonine-protein kinase ULK2 (Homo sapiens) (UniProt Q8IYT8); conditions: Compound concentration 1000.0 nM
[40] = molecular target: Non-receptor tyrosine-protein kinase TNK1 (Homo sapiens) (UniProt Q13470); conditions: Compound concentration 1000.0 nM
[41] = system: Tyrosine-protein kinase ABL1 (Homo sapiens), P00519 [T315I]; conditions: Compound concentration 1000.0 nM
[42] = molecular target: Receptor-type tyrosine-protein kinase FLT3 (Homo sapiens) (UniProt P36888); conditions: Compound concentration 1000.0 nM
[43] = molecular target: Serine/threonine-protein kinase DCLK2 (Homo sapiens) (UniProt Q8N568); conditions: Compound concentration 1000.0 nM
[44] = system: Tyrosine-protein kinase ABL1 (Homo sapiens), P00519 [Y253F]; conditions: Compound concentration 1000.0 nM
[45] = molecular target: Mitogen-activated protein kinase kinase kinase 5 (Homo sapiens) (UniProt Q99683); conditions: Compound concentration 1000.0 nM

Sequence of Tyrosine-protein kinase CSK (Homo sapiens) (P41240 2-450 limits assumed): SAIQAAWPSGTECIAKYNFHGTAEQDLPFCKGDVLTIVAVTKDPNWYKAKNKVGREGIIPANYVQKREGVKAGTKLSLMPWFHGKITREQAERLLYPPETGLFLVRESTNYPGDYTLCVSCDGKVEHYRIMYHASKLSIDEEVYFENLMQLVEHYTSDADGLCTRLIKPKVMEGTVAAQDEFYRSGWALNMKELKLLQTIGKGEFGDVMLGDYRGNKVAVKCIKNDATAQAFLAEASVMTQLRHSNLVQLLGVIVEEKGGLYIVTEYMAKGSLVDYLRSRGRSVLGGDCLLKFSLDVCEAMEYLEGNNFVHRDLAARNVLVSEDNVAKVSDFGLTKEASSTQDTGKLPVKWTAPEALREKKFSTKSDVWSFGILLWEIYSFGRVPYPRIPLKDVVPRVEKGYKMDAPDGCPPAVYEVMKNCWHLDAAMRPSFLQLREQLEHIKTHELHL
Sequence of Membrane-associated tyrosine- and threonine-specific cdc2-inhibitory kinase (Homo sapiens) (Q99640 whole entry): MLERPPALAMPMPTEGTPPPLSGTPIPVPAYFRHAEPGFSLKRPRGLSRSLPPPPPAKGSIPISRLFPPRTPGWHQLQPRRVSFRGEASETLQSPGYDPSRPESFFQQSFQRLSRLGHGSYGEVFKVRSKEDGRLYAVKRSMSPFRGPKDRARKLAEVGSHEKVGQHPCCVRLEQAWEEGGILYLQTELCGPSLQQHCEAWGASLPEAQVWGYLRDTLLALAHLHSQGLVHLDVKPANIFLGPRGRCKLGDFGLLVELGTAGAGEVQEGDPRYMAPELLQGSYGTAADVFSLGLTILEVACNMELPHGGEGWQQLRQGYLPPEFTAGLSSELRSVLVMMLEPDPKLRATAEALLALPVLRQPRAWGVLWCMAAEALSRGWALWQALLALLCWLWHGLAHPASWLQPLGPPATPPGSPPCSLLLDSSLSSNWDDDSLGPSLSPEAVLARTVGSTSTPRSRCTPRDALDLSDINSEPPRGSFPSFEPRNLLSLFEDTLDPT
Sequence of Non-receptor tyrosine-protein kinase TNK1 (Homo sapiens) (Q13470 whole entry): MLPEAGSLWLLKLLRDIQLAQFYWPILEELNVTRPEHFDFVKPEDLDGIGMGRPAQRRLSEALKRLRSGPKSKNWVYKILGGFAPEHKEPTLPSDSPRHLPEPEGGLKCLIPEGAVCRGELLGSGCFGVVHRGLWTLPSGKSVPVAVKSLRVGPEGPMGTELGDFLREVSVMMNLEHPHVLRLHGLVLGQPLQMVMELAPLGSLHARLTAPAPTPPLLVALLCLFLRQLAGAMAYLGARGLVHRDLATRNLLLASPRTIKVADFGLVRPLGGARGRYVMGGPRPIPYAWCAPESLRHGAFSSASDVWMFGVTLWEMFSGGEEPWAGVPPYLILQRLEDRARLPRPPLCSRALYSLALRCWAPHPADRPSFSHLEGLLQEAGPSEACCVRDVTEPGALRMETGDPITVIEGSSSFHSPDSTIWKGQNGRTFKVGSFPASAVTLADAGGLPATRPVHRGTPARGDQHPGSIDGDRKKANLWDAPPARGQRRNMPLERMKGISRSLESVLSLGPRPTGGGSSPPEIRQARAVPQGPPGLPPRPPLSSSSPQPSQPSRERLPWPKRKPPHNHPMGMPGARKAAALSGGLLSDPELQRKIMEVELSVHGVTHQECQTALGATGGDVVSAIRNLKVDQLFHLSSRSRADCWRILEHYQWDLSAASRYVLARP
Sequence of Serine/threonine-protein kinase Nek1 (Homo sapiens) (Q96PY6 whole entry): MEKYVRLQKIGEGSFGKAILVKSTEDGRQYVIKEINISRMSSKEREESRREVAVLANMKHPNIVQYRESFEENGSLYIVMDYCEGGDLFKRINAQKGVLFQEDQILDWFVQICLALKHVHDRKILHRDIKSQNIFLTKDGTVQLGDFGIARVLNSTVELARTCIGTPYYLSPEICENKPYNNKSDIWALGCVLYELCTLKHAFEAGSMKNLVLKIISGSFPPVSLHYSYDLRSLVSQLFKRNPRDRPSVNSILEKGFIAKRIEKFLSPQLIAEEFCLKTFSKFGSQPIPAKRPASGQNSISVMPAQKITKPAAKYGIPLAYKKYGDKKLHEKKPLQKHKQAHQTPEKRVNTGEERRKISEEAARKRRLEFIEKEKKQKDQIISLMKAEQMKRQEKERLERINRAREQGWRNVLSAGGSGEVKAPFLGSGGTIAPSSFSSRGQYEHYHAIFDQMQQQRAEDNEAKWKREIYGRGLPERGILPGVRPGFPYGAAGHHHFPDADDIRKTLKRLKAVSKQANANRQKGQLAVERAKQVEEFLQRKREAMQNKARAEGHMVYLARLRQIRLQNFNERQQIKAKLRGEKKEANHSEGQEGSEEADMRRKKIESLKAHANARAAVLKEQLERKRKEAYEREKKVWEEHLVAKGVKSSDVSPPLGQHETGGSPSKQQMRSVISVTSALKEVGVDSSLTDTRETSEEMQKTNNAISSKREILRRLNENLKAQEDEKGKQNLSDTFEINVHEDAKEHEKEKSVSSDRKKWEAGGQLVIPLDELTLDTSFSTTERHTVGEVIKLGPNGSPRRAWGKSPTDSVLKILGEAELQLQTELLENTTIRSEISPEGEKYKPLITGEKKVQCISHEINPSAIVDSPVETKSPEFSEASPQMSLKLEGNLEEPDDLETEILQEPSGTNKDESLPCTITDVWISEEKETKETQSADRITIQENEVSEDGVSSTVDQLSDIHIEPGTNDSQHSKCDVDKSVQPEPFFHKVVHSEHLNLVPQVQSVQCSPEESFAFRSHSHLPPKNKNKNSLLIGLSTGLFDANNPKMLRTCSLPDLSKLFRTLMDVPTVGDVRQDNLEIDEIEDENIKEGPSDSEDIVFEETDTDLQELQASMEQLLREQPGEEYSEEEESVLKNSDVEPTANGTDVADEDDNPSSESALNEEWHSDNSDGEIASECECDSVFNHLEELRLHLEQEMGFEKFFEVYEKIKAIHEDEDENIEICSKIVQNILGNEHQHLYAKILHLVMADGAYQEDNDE
Sequence of Macrophage-stimulating protein receptor (Homo sapiens) (Q04912 25-304 limits assumed): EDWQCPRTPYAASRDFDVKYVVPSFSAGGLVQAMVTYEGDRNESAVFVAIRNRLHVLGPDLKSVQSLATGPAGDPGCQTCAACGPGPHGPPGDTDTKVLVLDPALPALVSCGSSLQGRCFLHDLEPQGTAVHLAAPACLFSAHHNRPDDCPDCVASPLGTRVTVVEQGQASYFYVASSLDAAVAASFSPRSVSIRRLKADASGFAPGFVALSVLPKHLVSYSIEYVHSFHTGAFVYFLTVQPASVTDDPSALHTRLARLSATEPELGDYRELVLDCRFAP
Sequence of Macrophage-stimulating protein receptor (Homo sapiens) (Q04912 310-1400 limits assumed): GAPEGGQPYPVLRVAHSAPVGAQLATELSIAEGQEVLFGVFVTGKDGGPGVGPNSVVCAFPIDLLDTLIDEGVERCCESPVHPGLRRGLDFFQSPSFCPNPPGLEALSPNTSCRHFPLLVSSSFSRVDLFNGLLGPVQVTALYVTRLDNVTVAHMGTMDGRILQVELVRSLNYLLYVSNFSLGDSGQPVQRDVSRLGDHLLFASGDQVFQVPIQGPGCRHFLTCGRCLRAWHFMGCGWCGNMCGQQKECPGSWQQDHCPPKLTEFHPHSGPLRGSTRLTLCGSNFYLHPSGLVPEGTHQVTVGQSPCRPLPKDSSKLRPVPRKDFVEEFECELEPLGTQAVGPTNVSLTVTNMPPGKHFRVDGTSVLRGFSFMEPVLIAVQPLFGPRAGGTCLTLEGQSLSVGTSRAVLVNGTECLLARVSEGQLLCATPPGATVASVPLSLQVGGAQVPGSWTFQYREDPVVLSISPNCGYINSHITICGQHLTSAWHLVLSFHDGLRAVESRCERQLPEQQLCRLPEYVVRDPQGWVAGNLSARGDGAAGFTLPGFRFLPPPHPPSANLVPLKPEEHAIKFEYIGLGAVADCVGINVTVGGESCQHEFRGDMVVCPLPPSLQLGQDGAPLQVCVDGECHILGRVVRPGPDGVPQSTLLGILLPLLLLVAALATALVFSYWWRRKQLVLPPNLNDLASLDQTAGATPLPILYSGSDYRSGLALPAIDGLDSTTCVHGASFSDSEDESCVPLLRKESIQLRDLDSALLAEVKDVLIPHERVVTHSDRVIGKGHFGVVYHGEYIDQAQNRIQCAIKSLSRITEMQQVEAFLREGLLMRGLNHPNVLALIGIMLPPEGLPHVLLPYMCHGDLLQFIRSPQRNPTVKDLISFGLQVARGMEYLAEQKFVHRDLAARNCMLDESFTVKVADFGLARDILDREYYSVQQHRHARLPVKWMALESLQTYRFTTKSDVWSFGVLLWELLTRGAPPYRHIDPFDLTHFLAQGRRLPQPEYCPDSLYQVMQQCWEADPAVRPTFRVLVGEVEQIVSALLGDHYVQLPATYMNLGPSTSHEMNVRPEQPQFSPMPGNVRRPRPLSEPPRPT
Sequence of Muscarinic acetylcholine receptor M3 (Homo sapiens) (P20309 whole entry, looked up): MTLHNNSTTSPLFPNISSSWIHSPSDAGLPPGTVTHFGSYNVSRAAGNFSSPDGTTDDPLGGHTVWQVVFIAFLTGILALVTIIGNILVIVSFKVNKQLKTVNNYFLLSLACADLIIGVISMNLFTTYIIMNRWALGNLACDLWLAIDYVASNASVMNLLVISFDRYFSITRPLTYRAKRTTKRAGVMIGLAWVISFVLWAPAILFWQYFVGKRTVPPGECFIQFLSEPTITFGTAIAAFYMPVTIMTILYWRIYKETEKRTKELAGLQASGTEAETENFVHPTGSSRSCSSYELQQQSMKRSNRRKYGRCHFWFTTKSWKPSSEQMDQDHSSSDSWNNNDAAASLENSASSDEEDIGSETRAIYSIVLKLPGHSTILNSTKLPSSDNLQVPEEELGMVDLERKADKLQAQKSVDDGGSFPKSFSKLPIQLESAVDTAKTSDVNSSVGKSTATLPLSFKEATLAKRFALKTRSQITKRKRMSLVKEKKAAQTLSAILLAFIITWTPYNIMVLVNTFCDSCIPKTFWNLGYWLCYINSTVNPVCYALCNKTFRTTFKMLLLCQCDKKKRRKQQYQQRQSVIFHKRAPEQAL

Cn1cncc1[C@@](O)(COc1ccc(C#N)cc1-c1ccc(OC(F)(F)F)cc1)c1ccc(C#N)cc1 [A-108]
inactive: inhibition [1] 2.79% | residual activity [2] 90% | residual activity [3] 92% | residual activity [4] 100% | inhibition [5] 17.8% | residual activity [6] 97% | residual activity [7] 100% | residual activity [8] 94% | residual activity [9] 82% | residual activity [10] 100% | residual activity [11] 100% | residual activity [12] 100% | residual activity [13] 84% | inhibition [14] 1.27% | residual activity [15] 88% | residual activity [16] 100% | residual activity [17] 100% | residual activity [18] 100% | residual activity [19] 100% | residual activity [20] 74% | residual activity [21] 100% | residual activity [22] 100% | residual activity [23] 100% | residual activity [24] 100% | residual activity [25] 89% | residual activity [26] 100% | residual activity [27] 98% | residual activity [28] 100% | residual activity [29] 100% | residual activity [30] 100% | residual activity [31] 100% | residual activity [32] 100% | residual activity [33] 97% | residual activity [34] 100% | residual activity [35] 100% | residual activity [36] 100% | residual activity [37] 94% | residual activity [38] 100% | residual activity [39] 100% | residual activity [40] 88% | residual activity [41] 100% | residual activity [42] 100% | residual activity [43] 100% | residual activity [44] 92% | residual activity [45] 91%

Cn1cncc1[C@](O)(COc1ccc(C#N)cc1-c1ccc(OC(F)(F)F)cc1)c1ccc(C#N)cc1 [ABT-100]
inactive: inhibition [1] 23.3% | residual activity [2] 87% | residual activity [3] 92% | residual activity [4] 100% | inhibition [5] 5.92% | residual activity [6] 100% | residual activity [7] 82% | residual activity [8] 91% | residual activity [9] 72% | residual activity [10] 63% | residual activity [11] 68% | residual activity [12] 100% | residual activity [13] 85% | inhibition [14] -7.18% | residual activity [15] 100% | residual activity [16] 100% | residual activity [17] 71% | residual activity [18] 66% | residual activity [19] 100% | residual activity [20] 85% | residual activity [21] 100% | residual activity [22] 98% | residual activity [23] 100% | residual activity [24] 99% | residual activity [25] 100% | residual activity [26] 93% | residual activity [27] 100% | residual activity [28] 100% | residual activity [29] 100% | residual activity [30] 80% | residual activity [31] 98% | residual activity [32] 72% | residual activity [33] 100% | residual activity [34] 100% | residual activity [35] 100% | residual activity [36] 100% | residual activity [37] 100% | residual activity [38] 98% | residual activity [39] 100% | residual activity [40] 56% | residual activity [41] 100% | residual activity [42] 100% | residual activity [43] 98% | residual activity [44] 94% | residual activity [45] 77%
